Test results reported in paper PMC5915280, “Improvement of kynurenine aminotransferase-II inhibitors guided by mimicking sulfate esters” (PLoS ONE, 2018).

Target: T1, KAT-II (kynurenine aminotransferase-II) (Homo sapiens, UniProt Q8N5Z0)
T1 construct: gene AADAT; recombinant KAT-II with a hexa-histidine tag, expressed in E. coli Rosetta 2
Assay: HPLC assay of kynurenic acid formation with purified recombinant enzyme
Assay type: biochemical

T1 sequence (Q8N5Z0 30-425): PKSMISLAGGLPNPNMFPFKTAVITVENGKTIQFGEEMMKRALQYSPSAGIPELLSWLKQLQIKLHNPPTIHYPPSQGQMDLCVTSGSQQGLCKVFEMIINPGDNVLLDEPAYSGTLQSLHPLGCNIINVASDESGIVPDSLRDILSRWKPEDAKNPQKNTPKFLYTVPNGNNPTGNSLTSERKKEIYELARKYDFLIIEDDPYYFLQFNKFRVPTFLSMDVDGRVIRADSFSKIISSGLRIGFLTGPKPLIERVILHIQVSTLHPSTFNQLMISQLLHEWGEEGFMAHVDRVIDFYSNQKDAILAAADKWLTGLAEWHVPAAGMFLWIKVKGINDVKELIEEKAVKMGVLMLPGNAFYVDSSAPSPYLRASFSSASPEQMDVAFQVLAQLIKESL

IC50 [µM] | SMILES
73.8 | NS(=O)(=O)c1ccc(N2C(=O)c3cc(Cl)c(Cl)cc3C2=O)cc1 [JN-01, 4-(5,6-dichloro-1,3-dioxo-1,3-dihydro-2H-isoindol-2-yl)benzenesulfonamide]
113 | NS(=O)(=O)c1ccc(CCN2C(=O)c3cc(Cl)c(Cl)cc3C2=O)cc1 [JN-02, 4-(5,6-dichloro-1,3-dioxo-1,3-dihydro-2H-isoindol-2-yl)ethyl benzenesulfonamide]
